Reference: patent US11066668B2, “Compositions and methods for modulation of IKBKAP splicing” (Ionis Pharmaceuticals, Inc., priority 2012, dated 2021)
Oligonucleotides are written 5' to 3', each unit as a sugar letter and its base; * is a phosphorothioate linkage, no mark a phosphodiester; rarer units and linkages stand in square brackets, end groups in braces. Plain capitals give the bases only. e = 2'-O-(2-methoxyethyl) (MOE); [5mC] = 5-methylcytosine

Key:
Format in all cases: cell-based, human
[1] = test system: IKBKAP pre-mRNA (mt19-21 minigene); experiment: Exon 20 inclusion in HEK-293 cells harboring the mt19-21 IKBKAP minigene (RT-PCR); settings: HEK-293 with mt19-21 minigene; for % inclusion (exon 20): 0.007 nmol oligonucleotide by electroporation, RT-PCR two days later; for effect on exon 20 inclusion/skipping, in words: 0.007 nmol oligonucleotide
Experimental: Antisense oligonucleotides were designed targeting a human IKBKAP nucleic acid and were tested for their effects on IKBKAP pre-mRNA in vitro. Together, the overlapping antisense oligonucleotides spanned the entire 74-nucleotide region of the IKBKAP exon 20 sequence, as well as the 100-nucleotide intronic regions immediately upstream and downstream of exon 20. The antisense oligonucleotides are presented in Table 1, and were designed as uniform 2′-O-methoxyethyl ribose (MOE) oligonucleotides with phosphate backbones. Each oligonucleotide is 15 nucleosides in length. All cytosine residues throughout the oligonucleotide are 5-methylcytosines. ‘Start Site’ indicates the 5′-most nucleoside to which the oligonucleotide is targeted in the human gene sequence. “Stop site” indicates the 3′-most nucleoside to which the oligonucleotide is targeted in the human gene sequence. Each oligonucleotide listed in Table 1 is targeted to the human IKBKAP genomic sequence (the complement of GENBANK Accession No NT_008470.16 truncated from nucleotides 13290828 to Ser. No. 13/358,424, designated herein as SEQ ID NO: 1). ISIS 414161 has one mismatch with SEQ ID NO: 1.
Cultured HEK-293 cells harboring the mt19-21 minigene vector construct at a density of 7×10^5 cells per well were transfected using electroporation (Gene Pulsar II apparatus, Bio-Rad) with 0.007 nmol antisense oligonucleotide, as previously described (Hua, Y., et al., 2007. PLoS Biol 5:e73). […] These oligonucleotides served as controls for non-specific effects of uniform MOE oligonucleotides with phosphate backbones. Cells harboring the wt19-21 minigene and the mt19-21 minigene alone were also cultured and were used as controls for exon 20 inclusion levels. Two days later, cDNA synthesized from total RNA extracted from HEK-293 cells was amplified using the forward primer pCDNAF and reverse primer sequence IKAP21R4 to assay the splicing pattern of expressed RNAs by RT-PCR. To calculate exon 20 inclusion levels, the PCR amplicons were labeled with α^32P-dCTP. The PCR products were then separated by native PAGE, followed by phosphorimage analysis on a FUJIFILM FLA-5100 instrument (Fuji Medical Systems USA Inc.). The band intensities were quantified using Multi Gauge software Version 2.3 (FUJIFILM), and values were normalized for the G+C content according to the DNA sequence.
Treatment with antisense oligonucleotides targeting the 3′ and 5′ splice sites caused increased skipping of exon 20.
Additional oligonucleotides were designed targeting the first 30-nucleotide stretch of ISS-40. These oligonucleotides were designed by choosing sequences shifted in one nucleotide increments upstream and downstream (i.e., a “microwalk”) of ISS-40, starting from the +6 position in exon 20. The antisense oligonucleotides are presented in Table 2 and FIG. 4D, and were designed as uniform 2′-O-methoxyethyl ribose (MOE) oligonucleotides with phosphate backbones. Each oligonucleotide is 20 nucleosides in length. All cytosine residues throughout the oligonucleotide are 5-methylcytosines. ‘Start Site’ indicates the 5′-most nucleoside to which the oligonucleotide is targeted in the human gene sequence. “Stop site” indicates the 3′-most nucleoside to which the oligonucleotide is targeted in the human gene sequence. Each oligonucleotide listed in Table 2 is targeted to intron 20 of the human IKBKAP genomic sequence (the complement of GENBANK Accession No NT_008470.16 truncated from nucleotides 13290828 to Ser. No. 13/358,424, designated herein as SEQ ID NO: 1). These oligonucleotides were tested in vitro.
Cultured HEK-293 cells harboring the mt19-21 minigene vector construct at a density of 7×10^5 cells per well were transfected using electroporation (Gene Pulsar II apparatus, Bio-Rad) with 0.007 nmol antisense oligonucleotide, as previously described (Hua, Y., et al., 2007. PLoS Biol 5:e73). […]

[2] = test system: IKBKAP mRNA in GM04899 fibroblasts; experiment: Exon 20 inclusion in FD patient skin fibroblast line GM04899 (RT-PCR); settings: GM04899, kinetin treatment for 3 days, concentration not given; relative to IMR90 cells (100%)
Experimental: To investigate the effect of ISIS 421992 on patient-derived fibroblasts, the patient skin fibroblast line GM04899 (Coriell Cell Repository) was utilized. The cell line was derived from an individual homozygous for the major FD mutation.
GM04899 was cultured in minimal essential medium (Invitrogen) supplemented with non-essential amino acids (Invitrogen) and 20% (v/v) fetal bovine serum. The cells were grown to 40-50% confluence in 10-cm dishes. Cells were transfected with 2 nM, 5 nM, 25 nM, or 125 nM concentrations of ISIS 421992 using 12 μL Lipofectamine 2000 transfection reagent (Invitrogen). Two days later, cDNA synthesized from total RNA extracted from HEK-293 cells was amplified using the forward primer pCDNAF and reverse primer sequence IKAP21R4 to assay the splicing pattern of expressed RNAs by RT-PCR. To calculate exon 20 inclusion levels, the PCR amplicons were labeled with α^32P-dCTP. The PCR products were then separated by native PAGE, followed by phosphorimage analysis. The band intensities were quantified and values were normalized for the G+C content according to the DNA sequence. Multiple lanes for each condition represent independent experiments.
A batch of cells was treated with solvent (NaOH) only of the kinetin solution as a control. RNA from IMR90, a wild-type normal diploid lung fibroblast cell line was used as positive control. The results are expressed as percent inclusion of exon 20 compared to the exon 20 inclusion (100%) of IKBKAP mRNA in IMR90 cells.

[3] = test system: IKAP protein; experiment: IKAP protein levels in GM04899 fibroblasts (SDS-PAGE, anti-IKAP antibody, band intensity)
Experimental: Protein samples were obtained by Trizol extraction and separated by SDS-PAGE. The bands were transferred onto a nitrocellulose membrane and probed with an anti-IKAP antibody (abcam #ab56362) (1:1,000 dilution in 5% milk in TBST) for 12 hrs. The membrane was washed 5 times with TBST for 5 min each and then probed with secondary antibody 800 nm LiCor (1:5,000 in 5% milk in TBST) for 1 hr in the dark. The membrane was subsequently washed 5 times with TBST for 5 min each. The bands were then exposed at 800 nm and band intensity was quantified using an Odyssey (LiCor) instrument. The results are presented in Table 4 as percent increase in band intensity compared to the control oligonucleotide-treated bands.

Compound	% inclusion (exon 20) ([1]; Table 1)	other results
ISIS 414146: uniform 2′-MOE 15-mer, phosphate backbone; CTTAAATAAATTAAA, SEQ ID NO 25, intron 19 (e[5mC]eTeTeAeAeAeTeAeAeAeTeTeAeAeA; splice-switching)	26%	–
ISIS 414161: uniform 2′-MOE 15-mer, phosphate backbone; AACAGTACAATGGCG, SEQ ID NO 40, intron 20; one mismatch with SEQ ID NO 1 (eAeAe[5mC]eAeGeTeAe[5mC]eAeAeTeGeGe[5mC]eG)	88%	effect on exon 20 inclusion/skipping, in words [1]: markedly increased inclusion of exon 20; % inclusion (exon 20) ([1]; Table 2 (microwalk experiment)): 79%
ISIS 414136: uniform 2′-MOE 15-mer, phosphate backbone; ATAGCCAGGATACAC, SEQ ID NO 15, intron 19 (eAeTeAeGe[5mC]e[5mC]eAeGeGeAeTeAe[5mC]eAe[5mC]; splice-switching)	45%	effect on exon 20 inclusion/skipping, in words [1]: positive effect on exon 20 inclusion
ISIS 414174: uniform 2′-MOE 15-mer, phosphate backbone; AGTTCTCGAAATTGT, SEQ ID NO 53, intron 20 (eAeGeTeTe[5mC]eTe[5mC]eGeAeAeAeTeTeGeT; splice-switching)	29%	–
ISIS 414156: uniform 2′-MOE 15-mer, phosphate backbone; CCGAATCTGAGCTAA, SEQ ID NO 35, exon 20 (e[5mC]e[5mC]eGeAeAeTe[5mC]eTeGeAeGe[5mC]eTeAeA; splice-switching)	5%	–
c1coc(CNc2ncnc3nc[nH]c23)c1 [kinetin, 6-furfurylaminopurine, reference compound]	–	% inclusion of exon 20 [2]: 98%; IKAP protein levels, in words ([3]; GM04899, kinetin, under these conditions): did not increase IKAP protein levels; Percent increase in protein band intensity (IKAP) ([3]; GM04899, kinetin-treated, compared to control oligonucleotide-treated bands): 11%
ISIS 414159: uniform 2′-MOE 15-mer, phosphate backbone; TTGTCCAACCACTTC, SEQ ID NO 38, exon 20 (eTeTeGeTe[5mC]e[5mC]eAeAe[5mC]e[5mC]eAe[5mC]eTeTe[5mC]; splice-switching)	2%	–
ISIS 414144: uniform 2′-MOE 15-mer, phosphate backbone; TTAAAGCAGTAACAT, SEQ ID NO 23, intron 19 (eTeTeAeAeAeGe[5mC]eAeGeTeAeAe[5mC]eAeT; splice-switching)	7%	–
